# According to US11912701B2, “Protein kinase inhibitors for promoting liver regeneration or reducing or preventing hepatocyte death” (HEPAREGENIX GMBH, priority 2018, dated 2024):
# Key:
# MKK4 [1] = target: T1, MKK4 (Homo sapiens, UniProt P45985); assay: KINOMEscan competition binding assay, MKK4; details: residual percent of control binding (PoC) at 100 nM
# T1 construct: S84/D399; host or cells: HEK-293
# T1 sequence (P45985 84-399): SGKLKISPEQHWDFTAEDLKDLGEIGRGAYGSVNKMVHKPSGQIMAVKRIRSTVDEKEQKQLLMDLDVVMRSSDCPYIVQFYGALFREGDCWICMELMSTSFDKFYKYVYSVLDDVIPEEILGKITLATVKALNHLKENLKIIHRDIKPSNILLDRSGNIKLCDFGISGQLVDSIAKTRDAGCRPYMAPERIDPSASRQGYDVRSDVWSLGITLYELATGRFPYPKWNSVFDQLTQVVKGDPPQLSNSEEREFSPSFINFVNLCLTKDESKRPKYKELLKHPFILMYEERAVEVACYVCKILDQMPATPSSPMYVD
# Protocol: (§1) The assay was performed by combining three components: DNA-tagged kinase; immobilized ligand; and a test compound. The ability of the test compound to compete with the immobilized ligand was measured via quantitative PCR of the DNA tag. The technology is described in detail in Fabian, M. A. et al. A small molecule-kinase interaction map for clinical kinase inhibitors. Nat. […] Nat.
# (§2) For investigation of the affinity to MKK4, BRaf, MKK7 and JNK1, the kinases were produced in HEK-293 cells and subsequently tagged with DNA for qPCR detection. […] The liganded beads were blocked with excess biotin and washed with blocking buffer (SEABLOCK™ (Pierce), 1% BSA, 0.05% TWEEN®20, 1 mM DTT) to remove unbound ligand and to reduce nonspecific binding. […] All reactions were performed in polystyrene 96-well plates in a final volume of 0.135 mL. […] The kinase concentration in the eluates was measured by qPCR.
# (§3) The test compounds were provided as 10 mM stock solutions. The test solutions at indicated final concentrations were prepared at DiscoverX.
# Potency of representative examples against the protein kinases MKK4, BRaf, MKK7 and JNK1 expressed as residual percent of control binding (PoC), was determined at a concentration of 100 nM. The determined potencies are categorized as follows: […]
# BRaf = target: T2, BRaf (Homo sapiens, UniProt P15056); assay: KINOMEscan competition binding assay, BRaf; details: ratio PoC (off-target)/PoC (MKK4)
# T2 construct: purchased ProQinase GmbH, Freiburg, Germany (33PanQinase Assay Service)
# T2 sequence (P15056 whole entry, species assumed): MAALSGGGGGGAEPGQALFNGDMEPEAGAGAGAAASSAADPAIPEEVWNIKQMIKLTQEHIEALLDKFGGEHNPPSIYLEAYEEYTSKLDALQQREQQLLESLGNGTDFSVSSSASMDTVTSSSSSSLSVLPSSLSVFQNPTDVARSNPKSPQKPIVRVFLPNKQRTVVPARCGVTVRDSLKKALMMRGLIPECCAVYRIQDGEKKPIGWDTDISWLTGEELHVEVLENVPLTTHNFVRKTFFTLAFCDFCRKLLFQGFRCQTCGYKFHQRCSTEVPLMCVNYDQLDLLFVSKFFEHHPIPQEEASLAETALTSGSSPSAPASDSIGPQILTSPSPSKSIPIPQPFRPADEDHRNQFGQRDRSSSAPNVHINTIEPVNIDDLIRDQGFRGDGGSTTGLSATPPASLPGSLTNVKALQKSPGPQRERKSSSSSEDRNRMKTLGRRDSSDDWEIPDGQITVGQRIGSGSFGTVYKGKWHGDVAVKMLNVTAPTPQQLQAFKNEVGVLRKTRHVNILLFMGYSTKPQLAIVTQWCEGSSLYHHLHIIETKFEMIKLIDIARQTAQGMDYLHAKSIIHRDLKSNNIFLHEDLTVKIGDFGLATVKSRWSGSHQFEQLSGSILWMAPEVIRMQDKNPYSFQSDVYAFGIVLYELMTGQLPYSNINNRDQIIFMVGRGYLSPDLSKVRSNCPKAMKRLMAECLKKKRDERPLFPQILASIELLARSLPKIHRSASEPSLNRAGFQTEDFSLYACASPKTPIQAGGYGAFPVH
# Protocol: as §1, §2, §3
# (§4) Potency of representative examples against the protein kinases MKK4, BRaf, MKK7 and JNK1 expressed as residual percent of control binding (PoC), was determined at a concentration of 100 nM. The determined potencies are categorized as follows:
# (§5) The binding selectivity of representative examples against the protein kinases BRaf, MKK7 and JNK1, altogether denominated as “off-targets” is determined by the ratios of PoC (off-target)/PoC (MKK4).
# MKK4 [2] = target: T3, MKK4 (Homo sapiens, UniProt P45985); assay: 33PanQinase enzyme assay, MKK4; format: biochemical; details: for IC50: assay 'IC50', read-out: Potency MKK4 (IC50); for remaining activity at 0.1 µM: single concentration 100 nM, read-out: Potency MKK4 (residual activity, assay at single concentration)
# T3 construct: purchased ProQinase GmbH, Freiburg, Germany (33PanQinase Assay Service)
# T3 sequence (P45985 1-399): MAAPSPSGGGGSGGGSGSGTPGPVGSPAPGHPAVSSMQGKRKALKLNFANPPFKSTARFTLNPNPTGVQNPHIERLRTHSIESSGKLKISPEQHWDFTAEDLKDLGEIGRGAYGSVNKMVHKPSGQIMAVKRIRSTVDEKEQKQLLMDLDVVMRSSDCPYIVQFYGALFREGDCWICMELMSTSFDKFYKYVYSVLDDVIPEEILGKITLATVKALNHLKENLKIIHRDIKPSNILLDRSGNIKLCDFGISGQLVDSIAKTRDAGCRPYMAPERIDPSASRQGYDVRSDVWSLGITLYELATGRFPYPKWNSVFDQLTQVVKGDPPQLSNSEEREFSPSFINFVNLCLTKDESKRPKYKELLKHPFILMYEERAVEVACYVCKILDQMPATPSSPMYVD
# How it was run: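 Inhibition measured as 33Pi transfer to substrate after a 60-min, 30 °C reaction, acid-stopped and scintillation-counted.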
# MKK7 = target: T4, MKK7 (Homo sapiens, UniProt O14733); assay: KINOMEscan competition binding assay, MKK7; design: M1/R419; host or cells: HEK-293; details: ratio PoC (off-target)/PoC (MKK4)
# T4 sequence (O14733 1-419): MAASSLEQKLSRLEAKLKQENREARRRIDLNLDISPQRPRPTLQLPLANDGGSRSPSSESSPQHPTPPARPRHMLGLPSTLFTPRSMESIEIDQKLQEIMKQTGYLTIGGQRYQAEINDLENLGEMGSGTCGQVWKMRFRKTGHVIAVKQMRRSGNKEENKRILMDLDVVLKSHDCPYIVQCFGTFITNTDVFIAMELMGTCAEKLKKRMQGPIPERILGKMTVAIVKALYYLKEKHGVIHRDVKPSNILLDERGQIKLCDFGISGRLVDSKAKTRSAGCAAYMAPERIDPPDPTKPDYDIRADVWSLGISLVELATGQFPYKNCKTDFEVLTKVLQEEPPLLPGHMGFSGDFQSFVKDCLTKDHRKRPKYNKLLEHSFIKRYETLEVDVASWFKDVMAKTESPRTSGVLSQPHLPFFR
# Protocol: as §1, §2, §3, §4, §5
# JNK1 = JNK1 (Homo sapiens, UniProt P45983); assay: KINOMEscan competition binding assay, JNK1; design: M1/Q384; host or cells: HEK-293; details: ratio PoC (off-target)/PoC (MKK4)
# JNK1, sequence (P45983 1-384 isoform P45983-2): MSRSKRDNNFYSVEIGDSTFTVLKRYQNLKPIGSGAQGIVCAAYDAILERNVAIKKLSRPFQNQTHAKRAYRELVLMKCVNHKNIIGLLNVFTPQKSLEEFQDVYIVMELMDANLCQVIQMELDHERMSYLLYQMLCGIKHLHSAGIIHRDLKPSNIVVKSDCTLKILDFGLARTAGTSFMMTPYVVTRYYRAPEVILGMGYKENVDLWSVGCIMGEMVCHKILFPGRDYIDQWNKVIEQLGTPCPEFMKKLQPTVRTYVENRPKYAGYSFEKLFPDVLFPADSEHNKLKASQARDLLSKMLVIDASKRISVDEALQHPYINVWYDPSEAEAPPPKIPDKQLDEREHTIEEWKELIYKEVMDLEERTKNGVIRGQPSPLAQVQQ
# Protocol: as §1, §2, §3, §4, §5
SMILES,MKK4 [% Ctrl @ 100 nM (MKK4 [1]),selectivity based on % Ctrl @100 nM vs. Braf (BRaf),IC50 (MKK4 [2]),selectivity based on % Ctrl @100 nM vs. MKK7 (MKK7),selectivity based on % Ctrl @100 nM vs. JNK1 (JNK1),remaining activity at 0.1 µM (MKK4 [2])
CCCS(=O)(=O)Nc1ccc(F)c(C(=O)c2c[nH]c3ncc(-c4ccccn4)cc23)c1F [Example 47],++ (1 ≤ PoC < 3),+ (10 ≥ ratio > 3),1 to 10 µM,++ (100 ≥ ratio > 10),++ (100 ≥ ratio > 10),–
CCCS(=O)(=O)Nc1ccc(F)c(C(=O)c2c[nH]c3ncc(-c4ccc5ccsc5c4)cc23)c1F [Example 51],+ (3 ≤ PoC < 30),◯ (3 ≥ Ratio),–,+ (10 ≥ ratio > 3),◯ (3 ≥ Ratio),70 to 90%
CCCS(=O)(=O)Nc1ccc(F)c(C(=O)c2c[nH]c3ncc(-c4ccc5ccoc5c4)cc23)c1F [Example 52],+ (3 ≤ PoC < 30),◯ (3 ≥ Ratio),–,++ (100 ≥ ratio > 10),++ (100 ≥ ratio > 10),70 to 90%
"CCCS(=O)(=O)Nc1ccc(Br)c(C(=O)c2c[nH]c3ncc(-c4ccc(Cl)cc4)cc23)c1F [Example 60, N-(4-bromo-3-(5-(4-chlorophenyl)-1H-pyrrolo[2,3-b]pyridine-3-carbonyl)-2-fluorophenyl)propane-1-sulfonamide]",+ (3 ≤ PoC < 30),++ (100 ≥ ratio > 10),1 to 10 µM,++ (100 ≥ ratio > 10),++ (100 ≥ ratio > 10),–
"CCCS(=O)(=O)Nc1ccc(C#N)c(C(=O)c2c[nH]c3ncc(-c4ccc(Cl)cc4)cc23)c1F [Example 61, N-(3-(5-(4-chlorophenyl)-1H-pyrrolo[2,3-b]pyridine-3-carbonyl)-4-cyano-2-fluorophenyl)propane-1-sulfonamide]",◯ (30 ≤ PoC),◯ (3 ≥ Ratio),–,+ (10 ≥ ratio > 3),+ (10 ≥ ratio > 3),> 90%
"CCCS(=O)(=O)Nc1ccc(C#N)c(C(=O)c2c[nH]c3ncc(-c4ccc(Cl)cc4)cc23)c1C#N [Example 62, N-(3-(5-(4-chlorophenyl)-1H-pyrrolo[2,3-b]pyridine-3-carbonyl)-2,4-dicyanophenyl)propane-1-sulfonamide]",◯ (30 ≤ PoC),◯ (3 ≥ Ratio),–,◯ (3 ≥ Ratio),◯ (3 ≥ Ratio),> 90%
"CCCS(=O)(=O)Nc1cccc(C(=O)c2c[nH]c3ncc(-c4ccc(Cl)cc4)cc23)c1C#N [Example 63, N-(3-(5-(4-chlorophenyl)-1H-pyrrolo[2,3-b]pyridine-3-carbonyl)-2-cyanophenyl)propane-1-sulfonamide]",◯ (30 ≤ PoC),◯ (3 ≥ Ratio),–,◯ (3 ≥ Ratio),◯ (3 ≥ Ratio),50 to 70%
